According to PubChem BioAssay AID330 (DTP/NCI, 2004):
Where “and” joins values, the source holds several entries; their conditions need not be identical. Equal entries are not always repeated. Inconclusive results and toxic doses are left out. How the source made its calls: active means survival T/C of 150% or more; inactive means T/C below 125% in these data.

Tested on: P388 leukemia ip, CD2F1 mice, survival T/C
Test: NCI In Vivo Anticancer Drug Screen. Data for tumor model P388 Leukemia (intraperitoneal) in CD2F1 (CDF1) mice
Details: endpoint: median survival time, higher = longer survival
Method in brief: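 Mice carrying the transplanted tumor received test compound or vehicle. Survival was recorded in each group, and the value is the treated-group measurement divided by that of the vehicle-treated control group.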

[1] = dose: 50.0 mg/kg/injection, schedule: Q01DX005 (ip), vehicle: saline
[2] = dose: 50.0 mg/kg/injection, schedule: Q01DX005 (ip), vehicle: Klucel (hydroxypropylcellulose) (HPC)
[3] = dose: 100.0 mg/kg/injection, schedule: Q01DX005 (ip), vehicle: Klucel (hydroxypropylcellulose) (HPC)
[4] = dose: 200.0 mg/kg/injection, schedule: Q01DX005 (ip), vehicle: Klucel (hydroxypropylcellulose) (HPC)
[5] = dose: 15.0 mg/kg/injection, schedule: Q01DX005 (ip), vehicle: saline
[6] = dose: 30.0 mg/kg/injection, schedule: Q01DX005 (ip), vehicle: saline
[7] = dose: 100.0 mg/kg/injection, schedule: Q01DX005 (ip), vehicle: saline
[8] = dose: 100.0 mg/kg/injection, schedule: Q01DX009 (ip), vehicle: saline
[9] = dose: 200.0 mg/kg/injection, schedule: Q01DX009 (ip), vehicle: saline

Measured: T/C

NC(CCS(=O)(=O)NO)C(=O)O (configuration not stated)
inactive: dose: 12.5 mg/kg/injection, schedule: Q01DX009 (ip), vehicle: water 89 % of control | dose: 25.0 mg/kg/injection, schedule: Q01DX009 (ip), vehicle: water 99 % of control | dose: 50.0 mg/kg/injection, schedule: Q01DX009 (ip), vehicle: water 90 % of control | dose: 100.0 mg/kg/injection, schedule: Q01DX009 (ip), vehicle: water 102 % of control | dose: 200.0 mg/kg/injection, schedule: Q01DX009 (ip), vehicle: water 99 % of control

O=P(O)(O)OCC1(O)OCC(O)C(O)C1O (configuration not stated)
inactive: dose: 12.5 mg/kg/injection, schedule: Q01DX005 (ip), vehicle: saline 106 % of control | dose: 25.0 mg/kg/injection, schedule: Q01DX005 (ip), vehicle: saline 104 % of control | [1] 99 % of control and 103 % of control

CC(C)(C)OC(=O)NCS(=O)(=O)N(Cc1ccccc1)Cc1ccccc1
inactive: [2] 102 % of control | [3] 101 % of control | [4] 97 % of control

CC(=O)/C(=C\c1c(Cl)cccc1Cl)C(=O)CCN(C)C
inactive: dose: 7.5 mg/kg/injection, schedule: Q01DX005 (ip), vehicle: saline 120 % of control | [5] 117 % of control | [6] 117 % of control

CC(C)C1=CC(=O)C2=C(CCC3C(C)(C(=O)O)CCC[C@]23C)C1=O (some centres not stated)
inactive: dose: 6.0 mg/kg/injection, schedule: Q01DX005 (ip), vehicle: Klucel (hydroxypropylcellulose) (HPC) 102 % of control | dose: 12.0 mg/kg/injection, schedule: Q01DX005 (ip), vehicle: Klucel (hydroxypropylcellulose) (HPC) 104 % of control | dose: 24.0 mg/kg/injection, schedule: Q01DX005 (ip), vehicle: Klucel (hydroxypropylcellulose) (HPC) 100 % of control | dose: 48.0 mg/kg/injection, schedule: Q01DX005 (ip), vehicle: Klucel (hydroxypropylcellulose) (HPC) 99 % of control

CCOC(=C[P+](c1ccccc1)(c1ccccc1)c1ccccc1)OCC
inactive: dose: 0.39 mg/kg/injection, schedule: Q01DX005 (ip), vehicle: water 98 % of control and 103 % of control | dose: 0.78 mg/kg/injection, schedule: Q01DX005 (ip), vehicle: water 107 % of control and 96 % of control | dose: 1.56 mg/kg/injection, schedule: Q01DX005 (ip), vehicle: water 102 % of control and 110 % of control and 121 % of control | dose: 3.12 mg/kg/injection, schedule: Q01DX005 (ip), vehicle: water 113 % of control and 118 % of control and 124 % of control | dose: 6.25 mg/kg/injection, schedule: Q01DX005 (ip), vehicle: water 109 % of control

C/C(=C/c1cc(Br)c2c(c1)OCO2)[N+](=O)[O-]
inactive: dose: 100.0 mg/kg/injection, schedule: Q01DX001 (ip), vehicle: saline with Tween-80 110 % of control | dose: 200.0 mg/kg/injection, schedule: Q01DX001 (ip), vehicle: saline with Tween-80 100 % of control | dose: 400.0 mg/kg/injection, schedule: Q01DX001 (ip), vehicle: saline with Tween-80 99 % of control

O=C(NS(=O)C1C=CC2CCCC21)OC1CCCCC1c1ccccc1 (configuration not stated)
inactive: [2] 109 % of control | [3] 100 % of control | [4] 97 % of control

N#CC(C#N)=C1CCNc2ccccc21
inactive: dose: 100.0 mg/kg/injection, schedule: Q01DX009 (ip), vehicle: saline with Tween-80 95 % of control | dose: 200.0 mg/kg/injection, schedule: Q01DX009 (ip), vehicle: saline with Tween-80 95 % of control | dose: 400.0 mg/kg/injection, schedule: Q01DX009 (ip), vehicle: saline with Tween-80 95 % of control

Nc1ccc(C(=O)Nc2ccc(C(=O)Nc3ccc4cc(S(=O)(=O)O)cc(S(=O)(=O)O)c4c3)cc2)cc1
inactive: [1] 103 % of control | [7] 103 % of control | dose: 200.0 mg/kg/injection, schedule: Q01DX005 (ip), vehicle: saline 103 % of control

Nc1nnc(Cc2ccccc2)n1N
inactive: [5] 100 % of control | [6] 101 % of control | dose: 60.0 mg/kg/injection, schedule: Q01DX005 (ip), vehicle: saline with Tween-80 98 % of control | dose: 60.0 mg/kg/injection, schedule: Q01DX005 (ip), vehicle: saline 100 % of control and 117 % of control | dose: 120.0 mg/kg/injection, schedule: Q01DX005 (ip), vehicle: saline with Tween-80 100 % of control | dose: 120.0 mg/kg/injection, schedule: Q01DX005 (ip), vehicle: saline 116 % of control | dose: 240.0 mg/kg/injection, schedule: Q01DX005 (ip), vehicle: saline with Tween-80 94 % of control

O=C1NC(=O)C2=C1CCCC2O (configuration not stated)
inactive: dose: 6.25 mg/kg/injection, schedule: Q01DX009 (ip), vehicle: saline 102 % of control | dose: 12.5 mg/kg/injection, schedule: Q01DX009 (ip), vehicle: saline 101 % of control | dose: 25.0 mg/kg/injection, schedule: Q01DX009 (ip), vehicle: saline 110 % of control | dose: 50.0 mg/kg/injection, schedule: Q01DX009 (ip), vehicle: saline 102 % of control | [8] 107 % of control | [9] 118 % of control

CCN(CC)Cc1cc(C)c(O)c(N=Nc2ccc([N+](=O)[O-])cc2)c1C
inactive: dose: 100.0 mg/kg/injection, schedule: Q04DX002 (ip), vehicle: saline with Tween-80 101 % of control | dose: 200.0 mg/kg/injection, schedule: Q04DX002 (ip), vehicle: saline with Tween-80 99 % of control | dose: 400.0 mg/kg/injection, schedule: Q04DX002 (ip), vehicle: saline with Tween-80 97 % of control

C=C(C)C(=O)N(CC)CC
inactive: [8] 97 % of control | [9] 102 % of control

CCOC(=O)/C=C(\C)Nc1cccc2c(N/C(C)=C/C(=O)OCC)cccc12
inactive: dose: 50.0 mg/kg/injection, schedule: Q01DX005 (ip), vehicle: saline with Tween-80 105 % of control | dose: 100.0 mg/kg/injection, schedule: Q01DX005 (ip), vehicle: saline with Tween-80 100 % of control | dose: 200.0 mg/kg/injection, schedule: Q01DX005 (ip), vehicle: saline with Tween-80 98 % of control

CC(C)c1cc(C(C)C)c(S(=O)(=O)ON)c(C(C)C)c1
inactive: dose: 100.0 mg/kg/injection, schedule: Q04DX002 (ip), vehicle: saline 112 % of control | dose: 200.0 mg/kg/injection, schedule: Q04DX002 (ip), vehicle: saline 99 % of control

Cc1ccc2oc(-c3ccccc3)c(O)c(=O)c2c1
inactive: dose: 100.0 mg/kg/injection, schedule: Q04DX003 (ip), vehicle: saline with Tween-80 100 % of control | dose: 200.0 mg/kg/injection, schedule: Q04DX003 (ip), vehicle: saline with Tween-80 108 % of control | dose: 400.0 mg/kg/injection, schedule: Q04DX003 (ip), vehicle: saline with Tween-80 95 % of control

COCC(=O)C1(O)Cc2c(O)c3c(c(O)c2C(O)C1)C(=O)c1c(OC)cccc1C3=O (configuration not stated)
inactive: dose: 1.56 mg/kg/injection, schedule: Q01DX009 (ip), vehicle: other 92 % of control | dose: 3.13 mg/kg/injection, schedule: Q01DX009 (ip), vehicle: other 101 % of control | dose: 6.25 mg/kg/injection, schedule: Q01DX009 (ip), vehicle: other 101 % of control | dose: 12.5 mg/kg/injection, schedule: Q01DX009 (ip), vehicle: other 94 % of control | dose: 25.0 mg/kg/injection, schedule: Q01DX009 (ip), vehicle: other 92 % of control

C=C1C(=O)OC2CC1C(OC(=O)/C=C/c1ccccc1)C/C(C)=C/CC/C(C)=C/CCC2(C)O (configuration not stated)
inactive: dose: 12.5 mg/kg/injection, schedule: Q01DX009 (ip), vehicle: Klucel (hydroxypropylcellulose) (HPC) 113 % of control | dose: 25.0 mg/kg/injection, schedule: Q01DX009 (ip), vehicle: Klucel (hydroxypropylcellulose) (HPC) 113 % of control | dose: 50.0 mg/kg/injection, schedule: Q01DX009 (ip), vehicle: Klucel (hydroxypropylcellulose) (HPC) 118 % of control | dose: 100.0 mg/kg/injection, schedule: Q01DX009 (ip), vehicle: Klucel (hydroxypropylcellulose) (HPC) 110 % of control

CCC(C)NC1(N(C)C)N=C(N(C)C)N=C(N(C)C)O1 (configuration not stated)
inactive: [1] 101 % of control | [7] 99 % of control
